# Assay results from ChEMBL document CHEMBL1201862, “PubChem BioAssay data set” (2004).
#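 The compound was tested at five concentrations on cells cultured in 96-well plates, with a 48-hour exposure period. GI50 = concentration required for 50% inhibition of growth.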 Activity calls are given as the source filed them. No stated cut-off is given here; in the data, active = GI50 up to about 1.1 µM and inactive = higher.
# Columns and labels:
# Test in all cases: NCI-60 cell line screen, 48 h
# MDA-MB-231 = tested on: MDA-MB-231
# SF-539 = tested on: SF-539
# HCT-116 = tested on: HCT-116
# SF-268 = tested on: SF-268
# NCI-H226 = tested on: NCI-H226
# RPMI-8226 = tested on: RPMI-8226
# MCF7 = tested on: MCF7
# SNB-75 = tested on: SNB-75
# K562 = tested on: K562
# PC-3 = tested on: PC-3
# TK-10 = tested on: TK-10
# 786-0 = tested on: 786-0
# RXF 393 = tested on: RXF 393
# SK-MEL-28 = tested on: SK-MEL-28
# KM12 = tested on: KM12
# COLO 205 = tested on: COLO 205
# U-251 = tested on: U-251
# UO-31 = tested on: UO-31
# OVCAR-5 = tested on: OVCAR-5
# SN12C = tested on: SN12C
# SK-MEL-5 = tested on: SK-MEL-5
# CAKI-1 = tested on: CAKI-1
# OVCAR-4 = tested on: OVCAR-4
# NCI-H23 = tested on: NCI-H23
# NCI-H460 = tested on: NCI-H460
# NCI/ADR-RES = tested on: NCI/ADR-RES
# SW-620 = tested on: SW-620
# ACHN = tested on: ACHN
# OVCAR-3 = tested on: OVCAR-3
# MDA-N = tested on: MDA-N
# LOX IMVI = tested on: LOX IMVI
# UACC-257 = tested on: UACC-257
# NCI-H522 = tested on: NCI-H522
# A549 = tested on: A549
# SF-295 = tested on: SF-295
# SK-MEL-2 = tested on: SK-MEL-2
# Malme-3M = tested on: Malme-3M
# SK-OV-3 = tested on: SK-OV-3
# HOP-92 = tested on: HOP-92
# HCT-15 = tested on: HCT-15
# HCC 2998 = tested on: HCC 2998
# MOLT-4 = tested on: MOLT-4
# A498 = tested on: A498
# BT-549 = tested on: BT-549
# HOP-62 = tested on: HOP-62
# T47D = tested on: T47D
# SNB-19 = tested on: SNB-19
# MDA-MB-435 = tested on: MDA-MB-435
# M14 = tested on: M14
# EKVX = tested on: EKVX
# IGROV-1 = tested on: IGROV-1
# UACC-62 = tested on: UACC-62
# CCRF-CEM = tested on: CCRF-CEM
# SR = tested on: SR
# DU-145 = tested on: DU-145
# OVCAR-8 = tested on: OVCAR-8
# HT-29 = tested on: HT-29
# HL-60 = tested on: HL-60
smiles,measurement,setting,value
CN(C)S(=O)(=O)n1cnc(CO)c1,GI50,MDA-MB-231,> 100 µM (inactive)
same,GI50,SF-539,> 100 µM (inactive)
same,GI50,HCT-116,> 100 µM (inactive)
same,GI50,SF-268,> 100 µM (inactive)
same,GI50,NCI-H226,> 100 µM (inactive)
same,GI50,RPMI-8226,> 100 µM (inactive)
same,GI50,MCF7,> 100 µM (inactive)
same,GI50,SNB-75,> 100 µM (inactive)
same,GI50,K562,> 100 µM (inactive)
same,GI50,PC-3,> 100 µM (inactive)
same,GI50,TK-10,> 100 µM (inactive)
same,GI50,786-0,> 100 µM (inactive)
same,GI50,RXF 393,> 100 µM (inactive)
same,GI50,SK-MEL-28,> 100 µM (inactive)
same,GI50,KM12,> 100 µM (inactive)
same,GI50,COLO 205,> 100 µM (inactive)
same,GI50,U-251,> 100 µM (inactive)
same,GI50,UO-31,> 100 µM (inactive)
same,GI50,OVCAR-5,> 100 µM (inactive)
same,GI50,SN12C,> 100 µM (inactive)
same,GI50,SK-MEL-5,> 100 µM (inactive)
same,GI50,CAKI-1,> 100 µM (inactive)
same,GI50,OVCAR-4,> 100 µM (inactive)
same,GI50,NCI-H23,> 100 µM (inactive)
same,GI50,NCI-H460,> 100 µM (inactive)
same,GI50,NCI/ADR-RES,> 100 µM (inactive)
same,GI50,SW-620,> 100 µM (inactive)
same,GI50,ACHN,> 100 µM (inactive)
same,GI50,OVCAR-3,> 100 µM (inactive)
same,GI50,MDA-N,> 100 µM (inactive)
same,GI50,LOX IMVI,> 100 µM (inactive)
same,GI50,UACC-257,> 100 µM (inactive)
same,GI50,NCI-H522,> 100 µM (inactive)
same,GI50,A549,> 100 µM (inactive)
same,GI50,SF-295,> 100 µM (inactive)
same,GI50,SK-MEL-2,> 100 µM (inactive)
same,GI50,Malme-3M,> 100 µM (inactive)
same,GI50,SK-OV-3,> 100 µM (inactive)
same,GI50,HOP-92,> 100 µM (inactive)
same,GI50,HCT-15,> 100 µM
same,GI50,HCC 2998,> 100 µM (inactive)
same,GI50,MOLT-4,> 100 µM (inactive)
same,GI50,A498,> 100 µM (inactive)
same,GI50,BT-549,> 100 µM (inactive)
same,GI50,HOP-62,> 100 µM (inactive)
same,GI50,T47D,> 100 µM (inactive)
same,GI50,SNB-19,> 100 µM (inactive)
same,GI50,MDA-MB-435,> 100 µM (inactive)
same,GI50,M14,> 100 µM (inactive)
same,GI50,EKVX,> 100 µM (inactive)
same,GI50,IGROV-1,> 100 µM (inactive)
CC(=O)Nc1ccc(COC(O)CN2CCCCC2)cc1[N+](=O)[O-] (stereo not given),GI50,MDA-MB-231,> 100 µM (inactive)
same,GI50,SF-539,> 100 µM (inactive)
same,GI50,HCT-116,> 100 µM (inactive)
same,GI50,SF-268,> 100 µM (inactive)
same,GI50,NCI-H226,> 100 µM (inactive)
same,GI50,UACC-62,> 100 µM (inactive)
same,GI50,RPMI-8226,> 100 µM (inactive)
same,GI50,CCRF-CEM,> 100 µM (inactive)
same,GI50,MCF7,> 100 µM (inactive)
same,GI50,SNB-75,> 100 µM (inactive)
same,GI50,K562,> 100 µM (inactive)
same,GI50,PC-3,> 100 µM (inactive)
same,GI50,TK-10,> 100 µM (inactive)
same,GI50,SR,> 100 µM (inactive)
same,GI50,786-0,> 100 µM (inactive)
same,GI50,RXF 393,> 100 µM (inactive)
same,GI50,SK-MEL-28,> 100 µM (inactive)
same,GI50,KM12,> 100 µM (inactive)
same,GI50,COLO 205,> 100 µM (inactive)
same,GI50,U-251,> 100 µM (inactive)
same,GI50,DU-145,> 100 µM (inactive)
same,GI50,UO-31,> 100 µM (inactive)
same,GI50,OVCAR-8,> 100 µM (inactive)
same,GI50,OVCAR-5,> 100 µM (inactive)
same,GI50,SN12C,> 100 µM (inactive)
same,GI50,SK-MEL-5,> 100 µM (inactive)
same,GI50,CAKI-1,> 100 µM (inactive)
same,GI50,OVCAR-4,> 100 µM (inactive)
same,GI50,NCI-H23,> 100 µM (inactive)
same,GI50,NCI-H460,> 100 µM (inactive)
same,GI50,NCI/ADR-RES,> 100 µM (inactive)
same,GI50,SW-620,> 100 µM (inactive)
same,GI50,ACHN,> 100 µM (inactive)
same,GI50,OVCAR-3,> 100 µM (inactive)
same,GI50,MDA-N,> 100 µM (inactive)
same,GI50,UACC-257,> 100 µM (inactive)
same,GI50,NCI-H522,> 100 µM (inactive)
same,GI50,HT-29,> 100 µM (inactive)
same,GI50,A549,> 100 µM (inactive)
same,GI50,SF-295,> 100 µM (inactive)
same,GI50,SK-MEL-2,> 100 µM (inactive)
same,GI50,HL-60,> 100 µM (inactive)
same,GI50,Malme-3M,> 100 µM (inactive)
same,GI50,HOP-92,> 100 µM (inactive)
same,GI50,HCT-15,> 100 µM
same,GI50,HCC 2998,> 100 µM (inactive)
same,GI50,MOLT-4,> 100 µM (inactive)
same,GI50,A498,> 100 µM (inactive)
same,GI50,BT-549,> 100 µM (inactive)
same,GI50,T47D,> 100 µM (inactive)
same,GI50,SNB-19,> 100 µM (inactive)
same,GI50,MDA-MB-435,> 100 µM (inactive)
same,GI50,M14,> 100 µM (inactive)
same,GI50,IGROV-1,> 100 µM (inactive)
